US20240082223A1, “DIHYDROFUROPYRIDINE DERIVATIVES AS RHO- KINASE INHIBITORS” (CHIESI FARMACEUTICI S.P.A., priority 2020, published 2024)

Tests used:
ROCK2 = ROCK2 (Homo sapiens, UniProt O75116); test: In vitro inhibitory activity assay ROCK2 (Method A, ADP-Glo, 10 μM ATP); assay type: biochemical; settings: ATP 10 μM, read-out: Method A ROCK 2 (Ki)
Description: (§1) In vitro inhibitory activity assay description ROCK1 and ROCK2
(§2) The effectiveness of compounds of the present invention to inhibit Rho kinase activity can be determined in a 10 μl assay containing 40 mM Tris pH7.5, 20 mM MgCl2 0.1 mg/mL BSA, 50 μM DTT and 2.5 μM peptide substrate (Myelin Basic Protein) using an ADP-Glo kit (Promega). Compounds were dissolved in DMSO such that the final concentration of DMSO was 1% in the assay. All reactions/incubations are performed at 25° C. Compound (2 uL) and either Rho kinase 1 or 2 (4 μl) were mixed and incubated for 30 min. Reactions were initiated by addition of ATP (4 μL) such that the final concentration of ATP in the assay was 10 μM. After a 1 hour incubation […] of ADP-Glo Reagent was added and after a further 45 minutes incubation 20 uL of Kinase Detection Buffer was added and the mixture incubated for a further 30 minutes. The luminescent signal was measured on a luminometer. […] Compounds were tested in dose-response format and the inhibition of kinase activity was calculated at each concentration of compound. To determine the IC50 (concentration of compound required to inhibit 50% of the enzyme activity) data were fit to a plot of % inhibition vs Log10 compound concentration using a sigmoidal fit with a variable slope and fixing the maximum to 100% and the minimum to 0%. To determine the Ki values the Cheng-Prusoff equation was utilized (Ki=IC50/(1+[S]/Km).

ROCK1 = ROCK1 (Homo sapiens, UniProt Q13464); test: In vitro inhibitory activity assay ROCK1 (Method A, ADP-Glo, 10 μM ATP); assay type: biochemical; settings: ATP 10 μM, read-out: Method A ROCK 1 (Ki)
Chain of ROCK1 (Q13464 whole entry): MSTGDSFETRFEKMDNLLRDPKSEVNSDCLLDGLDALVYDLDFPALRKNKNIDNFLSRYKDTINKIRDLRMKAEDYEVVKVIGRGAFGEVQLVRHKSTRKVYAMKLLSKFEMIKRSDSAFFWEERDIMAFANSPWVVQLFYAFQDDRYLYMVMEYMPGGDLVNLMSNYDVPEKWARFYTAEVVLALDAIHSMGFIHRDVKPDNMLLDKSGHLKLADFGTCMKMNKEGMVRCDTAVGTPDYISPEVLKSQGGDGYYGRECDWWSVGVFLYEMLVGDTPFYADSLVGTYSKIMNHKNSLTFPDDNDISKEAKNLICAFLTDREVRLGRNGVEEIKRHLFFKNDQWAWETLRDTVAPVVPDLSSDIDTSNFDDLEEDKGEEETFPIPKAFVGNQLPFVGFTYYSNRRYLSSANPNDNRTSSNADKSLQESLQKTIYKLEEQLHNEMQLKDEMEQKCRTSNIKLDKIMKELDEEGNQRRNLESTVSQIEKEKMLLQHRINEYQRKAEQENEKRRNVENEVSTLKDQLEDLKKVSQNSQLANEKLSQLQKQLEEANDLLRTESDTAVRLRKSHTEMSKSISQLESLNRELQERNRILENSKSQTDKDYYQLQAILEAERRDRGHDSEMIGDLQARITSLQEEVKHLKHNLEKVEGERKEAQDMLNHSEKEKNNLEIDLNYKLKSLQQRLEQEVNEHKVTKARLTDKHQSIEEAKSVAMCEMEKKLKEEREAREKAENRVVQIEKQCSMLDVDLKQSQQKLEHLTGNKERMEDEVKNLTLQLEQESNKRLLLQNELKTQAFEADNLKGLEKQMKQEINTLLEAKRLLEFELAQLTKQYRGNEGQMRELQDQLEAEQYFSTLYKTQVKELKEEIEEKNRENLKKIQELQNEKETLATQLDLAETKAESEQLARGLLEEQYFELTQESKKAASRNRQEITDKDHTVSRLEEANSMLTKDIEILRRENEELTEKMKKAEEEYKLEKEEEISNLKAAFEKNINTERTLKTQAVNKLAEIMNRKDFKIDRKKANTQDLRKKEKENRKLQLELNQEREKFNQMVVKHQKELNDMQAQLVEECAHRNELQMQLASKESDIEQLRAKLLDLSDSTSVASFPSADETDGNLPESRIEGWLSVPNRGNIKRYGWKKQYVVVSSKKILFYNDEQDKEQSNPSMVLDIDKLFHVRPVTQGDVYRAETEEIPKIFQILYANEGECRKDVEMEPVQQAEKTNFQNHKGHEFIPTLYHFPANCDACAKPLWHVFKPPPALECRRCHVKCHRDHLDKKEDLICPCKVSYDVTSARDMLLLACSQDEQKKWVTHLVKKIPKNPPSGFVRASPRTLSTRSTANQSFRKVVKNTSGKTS
Description: as §1, §2

Chain of ROCK2 (O75116 whole entry): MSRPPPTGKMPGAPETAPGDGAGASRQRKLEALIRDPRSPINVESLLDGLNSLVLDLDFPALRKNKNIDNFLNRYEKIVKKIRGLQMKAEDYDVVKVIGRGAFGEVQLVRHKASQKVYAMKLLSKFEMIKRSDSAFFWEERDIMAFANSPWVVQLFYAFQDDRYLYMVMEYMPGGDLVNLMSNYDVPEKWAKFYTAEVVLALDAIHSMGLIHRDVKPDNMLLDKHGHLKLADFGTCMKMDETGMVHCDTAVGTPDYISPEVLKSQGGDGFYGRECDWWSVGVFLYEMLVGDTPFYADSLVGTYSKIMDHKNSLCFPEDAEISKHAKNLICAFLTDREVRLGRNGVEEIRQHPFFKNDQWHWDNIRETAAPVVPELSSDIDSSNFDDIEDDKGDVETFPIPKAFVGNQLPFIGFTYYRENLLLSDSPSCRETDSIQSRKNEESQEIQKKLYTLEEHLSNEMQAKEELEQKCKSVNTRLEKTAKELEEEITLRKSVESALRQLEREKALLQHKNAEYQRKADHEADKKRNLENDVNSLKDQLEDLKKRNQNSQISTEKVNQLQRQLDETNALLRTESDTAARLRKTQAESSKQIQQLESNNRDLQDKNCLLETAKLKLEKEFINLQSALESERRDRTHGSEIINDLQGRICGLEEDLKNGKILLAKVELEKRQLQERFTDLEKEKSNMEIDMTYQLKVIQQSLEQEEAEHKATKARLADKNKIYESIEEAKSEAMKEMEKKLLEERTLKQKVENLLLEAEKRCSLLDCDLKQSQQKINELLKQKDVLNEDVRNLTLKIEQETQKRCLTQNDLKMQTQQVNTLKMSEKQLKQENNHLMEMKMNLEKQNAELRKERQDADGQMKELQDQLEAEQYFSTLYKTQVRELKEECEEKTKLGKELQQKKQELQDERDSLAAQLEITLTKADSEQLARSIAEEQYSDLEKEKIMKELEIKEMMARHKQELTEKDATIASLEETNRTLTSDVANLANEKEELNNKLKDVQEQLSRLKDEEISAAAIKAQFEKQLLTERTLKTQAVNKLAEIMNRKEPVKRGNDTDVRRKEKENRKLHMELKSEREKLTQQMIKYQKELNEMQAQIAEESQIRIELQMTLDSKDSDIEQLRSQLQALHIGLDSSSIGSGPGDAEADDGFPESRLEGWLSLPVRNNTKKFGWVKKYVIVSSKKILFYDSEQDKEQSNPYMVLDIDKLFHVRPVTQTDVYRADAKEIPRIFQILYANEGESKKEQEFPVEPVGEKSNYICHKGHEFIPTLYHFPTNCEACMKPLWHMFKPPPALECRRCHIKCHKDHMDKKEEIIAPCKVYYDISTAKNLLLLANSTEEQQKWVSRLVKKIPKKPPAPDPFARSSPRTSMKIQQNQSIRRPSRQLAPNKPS

Compound | Ki (ROCK2) | Ki (ROCK1)
CN1CCc2nc(CNC(=O)c3cccc(CNc4ncc(-c5cn[nH]c5)c5c4CCO5)c3)sc2C1 [Example 29, 3-(((7-(1H-pyrazol-4-yl)-2,3-dihydrofuro[3,2-c]pyridin-4-yl)amino)methyl)-N-((5-methyl-4,5,6,7-tetrahydrothiazolo[5,4-c]pyridin-2-yl)methyl)benzamide] | ≤ 3 nM | 3 to 30 nM
O=C(Cc1ccccc1)Nc1cccc(CNc2ncc(-c3cn[nH]c3)c3c2CCO3)c1 [Example 50, N-(3-(((7-(1H-pyrazol-4-yl)-2,3-dihydrofuro[3,2-c]pyridin-4-yl)amino)methyl)phenyl)-2-phenylacetamide] | 3 to 30 nM | 3 to 30 nM
O=C(NCCN1CCOCC1)c1cccc(CNc2ncc(-c3cn[nH]c3)c3c2CCO3)c1 [Example 20, 3-(((7-(1H-pyrazol-4-yl)-2,3-dihydrofuro[3,2-c]pyridin-4-yl)amino)methyl)-N-(2-morpholinoethyl)benzamide] | ≤ 3 nM | ≤ 3 nM
O=C(Nc1cccc(CNc2ncc(-c3cn[nH]c3)c3c2CCO3)c1)c1nc2c(s1)CN(CCO)CC2 [Example 38, N-(3-(((7-(1H-pyrazol-4-yl)-2,3-dihydrofuro[3,2-c]pyridin-4-yl)amino)methyl)phenyl)-5-(2-hydroxyethyl)-4,5,6,7-tetrahydrothiazolo[5,4-c]pyridine-2-carboxamide] | ≤ 3 nM | ≤ 3 nM
Cn1ncc2c(C(=O)Nc3cccc(CNc4ncc(-c5cn[nH]c5)c5c4CCO5)c3)cccc21 [Example 42, N-(3-(((7-(1H-pyrazol-4-yl)-2,3-dihydrofuro[3,2-c]pyridin-4-yl)amino)methyl)phenyl)-1-methyl-1H-indazole-4-carboxamide] | ≤ 3 nM | 3 to 30 nM
CN1CCc2nc(C(=O)Nc3cccc(CNc4ncc(-c5cn[nH]c5)c5c4CCO5)c3)sc2C1 [Example 37, N-(3-(((7-(1H-pyrazol-4-yl)-2,3-dihydrofuro[3,2-c]pyridin-4-yl)amino)methyl)phenyl)-5-methyl-4,5,6,7-tetrahydrothiazolo[5,4-c]pyridine-2-carboxamide] | ≤ 3 nM | ≤ 3 nM
O=C(NC1CCN(Cc2ccccc2)CC1)c1cccc(CNc2ncc(-c3cn[nH]c3)c3c2CCO3)c1 [Example 54, 3-(((7-(1H-pyrazol-4-yl)-2,3-dihydrofuro[3,2-c]pyridin-4-yl)amino)methyl)-N-(1-benzylpiperidin-4-yl)benzamide] | ≤ 3 nM | ≤ 3 nM
O=C(N[C@H](CO)c1ccccc1)c1cccc(CNc2ncc(-c3cn[nH]c3)c3c2CCO3)c1 [Example 23, (S)-3-(((7-(1H-pyrazol-4-yl)-2,3-dihydrofuro[3,2-c]pyridin-4-yl)amino)methyl)-N-(2-hydroxy-1-phenylethyl)benzamide] | ≤ 3 nM | ≤ 3 nM
CN(C)Cc1ccc(CNC(=O)c2cccc(CNc3ncc(-c4cn[nH]c4)c4c3CCO4)c2)cc1 [Example 24, 3-(((7-(1H-pyrazol-4-yl)-2,3-dihydrofuro[3,2-c]pyridin-4-yl)amino)methyl)-N-(4-((dimethylamino)methyl)benzyl)benzamide] | ≤ 3 nM | ≤ 3 nM
CN(C)CCn1cc(NC(=O)c2cccc(CNc3ncc(-c4cn[nH]c4)c4c3CCO4)c2)cn1 [Example 27, 3-(((7-(1H-pyrazol-4-yl)-2,3-dihydrofuro[3,2-c]pyridin-4-yl)amino)methyl)-N-(1-(2-(dimethylamino)ethyl)-1H-pyrazol-4-yl)benzamide] | ≤ 3 nM | ≤ 3 nM
O=C(NCCc1ccncc1)c1cccc(CNc2ncc(-c3cn[nH]c3)c3c2CCO3)c1 [Example 17, 3-(((7-(1H-pyrazol-4-yl)-2,3-dihydrofuro[3,2-c]pyridin-4-yl)amino)methyl)-N-(2-(pyridin-4-yl)ethyl)benzamide] | ≤ 3 nM | ≤ 3 nM
CN1CCc2sc(C(=O)Nc3cccc(CNc4ncc(-c5cn[nH]c5)c5c4CCO5)c3)nc2C1 [Example 36, N-(3-(((7-(1H-pyrazol-4-yl)-2,3-dihydrofuro[3,2-c]pyridin-4-yl)amino)methyl)phenyl)-5-methyl-4,5,6,7-tetrahydrothiazolo[4,5-c]pyridine-2-carboxamide] | ≤ 3 nM | ≤ 3 nM
Cn1nc(C(=O)Nc2cccc(CNc3ncc(-c4cn[nH]c4)c4c3CCO4)c2)c2ccccc21 [Example 41, N-(3-(((7-(1H-pyrazol-4-yl)-2,3-dihydrofuro[3,2-c]pyridin-4-yl)amino)methyl)phenyl)-1-methyl-1H-indazole-3-carboxamide] | 3 to 30 nM | > 30 nM
CN(C)Cc1cccc(CNC(=O)c2cccc(CNc3ncc(-c4cn[nH]c4)c4c3CCO4)c2)c1 [Example 19, 3-(((7-(1H-pyrazol-4-yl)-2,3-dihydrofuro[3,2-c]pyridin-4-yl)amino)methyl)-N-(3-((dimethylamino)methyl)benzyl)benzamide] | ≤ 3 nM | ≤ 3 nM
O=C(NCCc1cccnc1)c1cccc(CNc2ncc(-c3cn[nH]c3)c3c2CCO3)c1 [Example 22, 3-(((7-(1H-pyrazol-4-yl)-2,3-dihydrofuro[3,2-c]pyridin-4-yl)amino)methyl)-N-(2-(pyridin-3-yl)ethyl)benzamide] | ≤ 3 nM | ≤ 3 nM
CC(=O)Nc1cccc(C(C)Nc2ncc(-c3cn[nH]c3)c3c2CCO3)c1 (stereo not shown) [Example 52, N-(3-(1-((7-(1H-pyrazol-4-yl)-2,3-dihydrofuro[3,2-c]pyridin-4-yl)amino)ethyl)phenyl)acetamide] | 3 to 30 nM | 3 to 30 nM

Other lines, results leading:

Ki (ROCK2) | Ki (ROCK1) | Compound
≤ 3 nM | ≤ 3 nM | Cc1ccc(CNC(=O)c2cccc(CNc3ncc(-c4cn[nH]c4)c4c3CCO4)c2)s1 [Example 25, 3-(((7-(1H-pyrazol-4-yl)-2,3-dihydrofuro[3,2-c]pyridin-4-yl)amino)methyl)-N-((5-methylthiophen-2-yl)methyl)benzamide]
≤ 3 nM | ≤ 3 nM | Cn1ncc2cc(C(=O)Nc3cccc(CNc4ncc(-c5cn[nH]c5)c5c4CCO5)c3)ccc21 [Example 39, N-(3-(((7-(1H-pyrazol-4-yl)-2,3-dihydrofuro[3,2-c]pyridin-4-yl)amino)methyl)phenyl)-1-methyl-1H-indazole-5-carboxamide]
≤ 3 nM | ≤ 3 nM | CN1CCc2cc(C(=O)Nc3cccc(CNc4ncc(-c5cn[nH]c5)c5c4CCO5)c3)cnc2C1 [Example 51, N-(3-(((7-(1H-pyrazol-4-yl)-2,3-dihydrofuro[3,2-c]pyridin-4-yl)amino)methyl)phenyl)-7-methyl-5,6,7,8-tetrahydro-1,7-naphthyridine-3-carboxamide]
≤ 3 nM | ≤ 3 nM | CN(C)Cc1ccc(C(=O)Nc2cccc(CNc3ncc(-c4cn[nH]c4)c4c3CCO4)c2)cc1 [Example 35, N-(3-(((7-(1H-Pyrazol-4-yl)-2,3-dihydrofuro[3,2-c]pyridin-4-yl)amino)methyl)phenyl)-4-((dimethylamino)methyl)benzamide]
≤ 3 nM | ≤ 3 nM | CN1Cc2ccc(CNC(=O)c3cccc(CNc4ncc(-c5cn[nH]c5)c5c4CCO5)c3)cc2C1 [Example 30, 3-(((7-(1H-pyrazol-4-yl)-2,3-dihydrofuro[3,2-c]pyridin-4-yl)amino)methyl)-N-((2-methylisoindolin-5-yl)methyl)benzamide]
≤ 3 nM | ≤ 3 nM | O=C(Nc1cc(CNc2ncc(-c3cn[nH]c3)c3c2CCO3)ccc1F)c1ccc2c(c1)CCNC2 [Example 47, N-(5-(((7-(1H-pyrazol-4-yl)-2,3-dihydrofuro[3,2-c]pyridin-4-yl)amino)methyl)-2-fluorophenyl)-1,2,3,4-tetrahydroisoquinoline-6-carboxamide]
≤ 3 nM | ≤ 3 nM | O=C(Nc1cccc(CNc2ncc(-c3cn[nH]c3)c3c2CCO3)c1)c1ccc2c(c1)CCNC2 [Example 40, N-(3-(((7-(1H-pyrazol-4-yl)-2,3-dihydrofuro[3,2-c]pyridin-4-yl)amino)methyl)phenyl)-1,2,3,4-tetrahydroisoquinoline-6-carboxamide]
≤ 3 nM | ≤ 3 nM | O=C(NCc1ccncc1)c1cccc(CNc2ncc(-c3cn[nH]c3)c3c2CCO3)c1 [Example 53, 3-(((7-(1H-pyrazol-4-yl)-2,3-dihydrofuro[3,2-c]pyridin-4-yl)amino)methyl)-N-(pyridin-4-ylmethyl)benzamide]
≤ 3 nM | ≤ 3 nM | CN(C)Cc1cccc(C(=O)Nc2cccc(CNc3ncc(-c4cn[nH]c4)c4c3CCO4)c2)c1 [Example 49, N-(3-(((7-(1H-pyrazol-4-yl)-2,3-dihydrofuro[3,2-c]pyridin-4-yl)amino)methyl)phenyl)-3-((dimethylamino)methyl)benzamide]
≤ 3 nM | ≤ 3 nM | CN1CCc2nc(NC(=O)c3cccc(CNc4ncc(-c5cn[nH]c5)c5c4CCO5)c3)sc2C1 [Example 21, 3-(((7-(1H-pyrazol-4-yl)-2,3-dihydrofuro[3,2-c]pyridin-4-yl)amino)methyl)-N-(5-methyl-4,5,6,7-tetrahydrothiazolo[5,4-c]pyridin-2-yl)benzamide]
